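Method: 48-hour compound exposure of cells in 96-well plates, five concentrations, linear interpolation of endpoints. TGI marks complete inhibition of growth.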
Columns and labels:
Experiment in all cases: NCI tumour cell line growth inhibition, 48 h
UACC-257 melanoma = tested on: UACC-257 melanoma
SK-OV-3 ovarian = tested on: SK-OV-3 ovarian
EKVX NSCLC = tested on: EKVX NSCLC
SNB-19 CNS = tested on: SNB-19 CNS
SN12C renal = tested on: SN12C renal
SF-268 CNS = tested on: SF-268 CNS
UO-31 renal = tested on: UO-31 renal
MOLT-4 leukemia = tested on: MOLT-4 leukemia
CCRF-CEM leukemia = tested on: CCRF-CEM leukemia
UACC-62 melanoma = tested on: UACC-62 melanoma
MALME-3M melanoma = tested on: MALME-3M melanoma
LOX IMVI melanoma = tested on: LOX IMVI melanoma
SK-MEL-28 melanoma = tested on: SK-MEL-28 melanoma
NCI/ADR-RES ovarian = tested on: NCI/ADR-RES ovarian
NCI-H226 lung = tested on: NCI-H226 lung
U251 CNS = tested on: U251 CNS
SNB-75 CNS = tested on: SNB-75 CNS
A498 renal = tested on: A498 renal
SK-MEL-5 melanoma = tested on: SK-MEL-5 melanoma
HT29 colon = tested on: HT29 colon
RPMI-8226 leukemia = tested on: RPMI-8226 leukemia
HCT-15 colon = tested on: HCT-15 colon
CAKI-1 renal = tested on: CAKI-1 renal
COLO 205 colon = tested on: COLO 205 colon
NCI-H522 lung = tested on: NCI-H522 lung
OVCAR-8 ovarian = tested on: OVCAR-8 ovarian
SN12K1 renal = tested on: SN12K1 renal
DMS 114 small cell lung = tested on: DMS 114 small cell lung
SF-295 CNS = tested on: SF-295 CNS
OVCAR-3 ovarian = tested on: OVCAR-3 ovarian
KM20L2 colon = tested on: KM20L2 colon
HOP-18 NSCLC = tested on: HOP-18 NSCLC
K-562 leukemia = tested on: K-562 leukemia
HOP-92 NSCLC = tested on: HOP-92 NSCLC
NCI-H460 lung = tested on: NCI-H460 lung
SNB-78 CNS = tested on: SNB-78 CNS
DLD-1 colon = tested on: DLD-1 colon
KM12 colon = tested on: KM12 colon
XF 498 CNS = tested on: XF 498 CNS
OVCAR-5 ovarian = tested on: OVCAR-5 ovarian
DMS 273 small cell lung = tested on: DMS 273 small cell lung
HCC-2998 colon = tested on: HCC-2998 colon
SK-MEL-2 melanoma = tested on: SK-MEL-2 melanoma
OVCAR-4 ovarian = tested on: OVCAR-4 ovarian
IGROV1 ovarian = tested on: IGROV1 ovarian
MCF7 breast = tested on: MCF7 breast
HOP-62 NSCLC = tested on: HOP-62 NSCLC
HL-60(TB) leukemia = tested on: HL-60(TB) leukemia
SW-620 colon = tested on: SW-620 colon
P388/ADR leukemia = tested on: P388/ADR leukemia
A549 NSCLC = tested on: A549 NSCLC
NCI-H23 lung = tested on: NCI-H23 lung
SF-539 CNS = tested on: SF-539 CNS
P388 leukemia = tested on: P388 leukemia
RXF 393 renal = tested on: RXF 393 renal
M19-MEL melanoma = tested on: M19-MEL melanoma
HCT-116 colon = tested on: HCT-116 colon
M14 melanoma = tested on: M14 melanoma
ACHN renal = tested on: ACHN renal
TK-10 renal = tested on: TK-10 renal
RXF-631 renal = tested on: RXF-631 renal
786-0 renal = tested on: 786-0 renal
SR leukemia = tested on: SR leukemia
LXFL 529 NSCLC = tested on: LXFL 529 NSCLC

Measured: TGI

Cc1csc(NC(=NCCN2CCOCC2)Nc2nc(C)cs2)n1
> 31.6 µM: P388 leukemia
not listed: M14 melanoma | ACHN renal | TK-10 renal | RXF-631 renal | 786-0 renal | SR leukemia | LXFL 529 NSCLC
> 100 µM: all other assays above

C[N+](C)(C)CC1CCCC(C[N+](C)(C)C)C1O (centres undefined)
not listed: SNB-19 CNS | NCI/ADR-RES ovarian | SN12K1 renal | XF 498 CNS | MCF7 breast | P388/ADR leukemia | P388 leukemia
> 100 µM: all other assays above
